Laboratory results reported in patent publication US20030083336A1, “Phenylpiperazinyl derivatives” (H. Lundbeck A/S, priority 1999, published 2003).
pIC50: −log10 of the molar value. Counter-ions that a name gives are not always drawn.

Columns and labels:
[1] = target: T1, human cloned dopamine D3 receptors (Homo sapiens, UniProt P35462); test: Inhibition of the binding of [3H]-Spiperone to human D3 receptors; conditions: [3H]Spiperone 0.3 nM; for pIC50: membranes of CHO-cells, read-out: D3-bind. IC50; for inhibition at 0.05 µM: test compound at 50 nM, read-out: D3-bind. % inhibition of binding at 50 nM
T1 construct: expressed in transfected cells; host or cells: CHO cells
Procedure: Inhibition of the Binding of [^3H]-Spiperone to Human D3 Receptors
By this method the inhibition by drugs of the binding [^3H]Spiperone (0.3 nM) to membranes of human cloned dopamine D3 receptors expressed in CHO-cells is determined in vitro. Method modified from R. G. MacKenzie et al. Eur. J. Pharm.-Mol. Pharm. Sec. 1994, 266, 79-85. The results are given in the following Table 1 as IC50-values or as percent inhibition of the binding of ^3H-Spiperone at the concentration of the test compound indicated.

[2] = target: T2, human cloned dopamine D4.2 receptors (Homo sapiens, UniProt P21917, DEL265-296); test: Inhibition of the binding of 3H-YM-09151-2 to human dopamine D4 receptors; conditions: [3H]YM-09151-2 0.06 nM; for pIC50: membranes of CHO-cells, read-out: D4-bind. IC50; for inhibition at 0.05 µM: test compound at 50 nM, read-out: D4-bind. % inhibition of binding at 50 nM
T2 construct: expressed in transfected cells; host or cells: CHO cells
T2 sequence (P21917 with tags, fused parts or gaps DEL265-296): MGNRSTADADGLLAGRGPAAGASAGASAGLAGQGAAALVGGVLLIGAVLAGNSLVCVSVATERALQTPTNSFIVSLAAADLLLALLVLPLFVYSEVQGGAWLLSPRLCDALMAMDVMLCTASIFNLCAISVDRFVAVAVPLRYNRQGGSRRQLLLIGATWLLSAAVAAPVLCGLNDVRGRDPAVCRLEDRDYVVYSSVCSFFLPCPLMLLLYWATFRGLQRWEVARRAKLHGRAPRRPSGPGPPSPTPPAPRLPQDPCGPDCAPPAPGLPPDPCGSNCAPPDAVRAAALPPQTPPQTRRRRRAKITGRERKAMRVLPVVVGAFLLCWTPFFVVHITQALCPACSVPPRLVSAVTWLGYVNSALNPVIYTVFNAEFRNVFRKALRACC
Procedure: Inhibition of the Binding of ^3H-YM-09151-2 to Human Dopamine D4 Receptors
By this method the inhibition by drugs of the binding of [^3H]YM-09151-2 (0.06 nM) to membranes of human cloned dopamine D4.2 receptors expressed in CHO-cells is determined in vitro. Method modified from NEN Life Science Products, Inc., technical data certificate PC2533-10/96. The results are given in the following Table 1 as IC50-values or as percent inhibition of the binding of ^3H-YM-09151 -2 at the concentration of the test compound indicated.

T1 sequence (P35462 whole entry): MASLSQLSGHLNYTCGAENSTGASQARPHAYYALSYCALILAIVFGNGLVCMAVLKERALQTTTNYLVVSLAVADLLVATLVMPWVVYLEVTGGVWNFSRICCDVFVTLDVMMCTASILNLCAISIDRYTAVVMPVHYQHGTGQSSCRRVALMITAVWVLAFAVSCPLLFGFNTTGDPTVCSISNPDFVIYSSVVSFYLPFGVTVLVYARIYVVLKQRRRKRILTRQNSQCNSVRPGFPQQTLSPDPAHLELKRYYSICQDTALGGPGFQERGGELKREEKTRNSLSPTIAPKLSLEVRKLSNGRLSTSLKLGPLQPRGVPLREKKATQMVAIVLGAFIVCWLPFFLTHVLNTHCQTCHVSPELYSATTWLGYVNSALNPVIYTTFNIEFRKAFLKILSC

| melting point [°C] | pIC50 [1] | pIC50 [2] | inhibition at 0.05 µM [1] [%] | inhibition at 0.05 µM [2] [%] | SMILES |
| --- | --- | --- | --- | --- | --- |
|  | 7.59 | 7.32 |  |  | Cc1c(Oc2cccc(N(C)C)c2)cccc1N1CCN(CCCc2c[nH]c3ccccc23)CC1 [Compound 1a] |
|  | 8.00 | 8.27 |  |  | CCN(CC)c1cccc(Oc2cccc(N3CCN(CCCc4c[nH]c5ccc(F)cc45)CC3)c2C)c1 [Compound 2a] |
|  |  |  | 83 | 53 | CCN(CC)c1cccc(Oc2cccc(N3CCN(CCCCc4c[nH]c5ccc(Cl)cc45)CC3)c2C)c1 [Compound 2ab, 1-{3-[3-(Diethylamino)phenoxy]-2-methylphenyl}-4-[4-(5-chloro-1H-indol-3-yl)butyl]piperazine] |
|  | 8.17 |  |  | 98 | COc1cc(Oc2cccc(N3CCN(CCCc4c[nH]c5ccc(F)cc45)CC3)c2C)cc(OC)c1OC [Compound 2b, 1-[2-Methyl-3-(3,4,5-trimethoxyphenoxy)phenyl]-4-[3-(5-fluoro-1H-indol-3-yl)propyl]piperazine] |
|  | 7.89 | 8.26 |  |  | CCN(CC)c1cccc(Oc2cccc(N3CCN(CCCc4c[nH]c5ccc(Cl)cc45)CC3)c2C)c1 [Compound 2c, 1-{3-[3-(Diethylamino)phenox]-2-methylphenyl}-4-[3-(5-chloro-1H-indol-3-yl)propyl]piperazine] |
|  |  | 7.92 | 70 |  | CCN(CC)c1cccc(Oc2cccc(N3CCN(CCCc4c[nH]c5c(F)cc(F)cc45)CC3)c2C)c1 [Compound 2d, 1-{3-[3-(Diethylamino)phenoxy]-2-methylphenyl}-4-[3-(5,7-difluoro-1H-indol-3-yl)propyl]piperazine] |
|  |  | 8.00 | 71 |  | COc1cc(Oc2cccc(N3CCN(CCCc4c[nH]c5ccc(Cl)cc45)CC3)c2C)cc(OC)c1OC [Compound 2e, 1-[2-Methyl-3-(3,4,5-trimethoxyphenoxy)phenyl}-4-[3-(5-chloro-1H-indol-3-yl)propyl]piperazine] |
|  |  | 7.46 | 70 |  | CCN(CC)c1cccc(Oc2cccc(N3CCN(CCCc4c[nH]c5ccccc45)CC3)c2C)c1 [Compound 2f, 1-{3-[3-(Diethylamino)phenoxy]-2-methylphenyl}-4-[3-(1H-indol-3-yl)propyl]piperazine] |
|  |  | 7.43 | 77 |  | Cc1c(Oc2cccc(N(C)C)c2)cccc1N1CCN(CCCc2c[nH]c3ccc(F)cc23)CC1 [Compound 2h, 1-{3-[3-(Dimethylamino)phenoxy]-2-methylphenyl}-4-[3-(5-fluoro-1H-indol-3-yl)propyl]piperazine] |
|  |  | 7.44 | 57 |  | Cc1c(N2CCN(CCCc3c[nH]c4ccc(F)cc34)CC2)cccc1N1CC(C)OC(C)C1 (stereo not drawn) [Compound 2j, 1-[3-(2,6-Dimethylmorpholin-4-yl)-2-methylphenyl]-4-[3-(5-fluoro-1H-indol-3-yl)propyl]piperazine] |
|  |  | 7.40 | 96 |  | CCN(CC)c1cccc(Oc2cccc(N3CCN(CCCCc4c[nH]c5ccc(F)cc45)CC3)c2C)c1 [Compound 2k, 1-{3-[3-(Diethylamino)phenoxy]-2-methylphenyl}-4-[4-(5-fluoro-1H-indol-3-yl)butyl]piperazine] |
|  |  | 7.24 | 74 |  | Cc1c(Oc2cccc(N(C)C)c2)cccc1N1CCN(CCCc2c[nH]c3ccc(Cl)cc23)CC1 [Compound 2m] |
|  |  | 7.37 | 61 |  | Cc1c(Oc2ccc3c(c2)OCO3)cccc1N1CCN(CCCc2c[nH]c3ccc(F)cc23)CC1 [Compound 2q, 1-[3-(1,3-Benzodioxolan-5-yloxy)-2-methylphenyl]-4-[3-(5-fluoro-1H-indol-3-yl)propyl]piperazine] |
|  |  | 7.21 | 90 |  | Cc1c(Oc2cccc(N(C)C)c2)cccc1N1CCN(CCCCc2c[nH]c3c(F)cc(F)cc23)CC1 [Compound 2r, 1-{3-[3-(Dimethylamino)phenoxy]-2-methylphenyl}-4-[4-(5,7-difluoro-1H-indol-3-yl)butyl]piperazine] |
|  |  | 7.33 | 54 |  | Cc1c(Oc2ccc3c(c2)OCO3)cccc1N1CCN(CCCc2c[nH]c3c(F)cc(F)cc23)CC1 [Compound 2t, 1-[3-(1,3-Benzodioxolan-5-yloxy)-2-methylphenyl]-4-[3-(5,7-difluoro-1H-indol-3-yl)propyl]piperazine] |
|  |  | 7.49 | 59 |  | Cc1c(Oc2cccc(N(C)C)c2)cccc1N1CCN(CCCc2c[nH]c3c(F)cc(F)cc23)CC1 [Compound 2z, 1-{3-[3-(Dimethylamino)phenoxy]-2-methylphenyl}-4-[3-(5,7-difluoro-1H-indol-3-yl)propyl]piperazine] |

More lines, now with the values behind:

| SMILES | melting point [°C] | pIC50 [1] | pIC50 [2] | inhibition at 0.05 µM [1] [%] | inhibition at 0.05 µM [2] [%] |
| --- | --- | --- | --- | --- | --- |
| Cc1c(N2CCOCC2)cccc1N1CCN(CCCc2c[nH]c3ccc(F)cc23)CC1 (as salt: HCl) [Compound 1d, 1-[2-methyl-3-(morpholin-4-yl)phenyl]-4-[3-(5-fluoro-1H-indol-3-yl)propyl]piperazine] | 212 to 215 |  |  |  |  |
| Cc1c(N2CCOCC2)cccc1N1CCN(CCCc2c[nH]c3ccccc23)CC1 (hydrate or solvate) [Compound 1b, 1-[3-(1H-Indol-3-yl)propyl]-4-[2-methyl-3-(morpholin-4-yl)-phenyl]piperazine] | 112 to 113 |  |  |  |  |
| Cc1c(N2CCOCC2)cccc1N1CCN(CCCc2c[nH]c3ccccc23)CC1 [Compound 1b, 1-[3-(1H-Indol-3-yl)propyl]-4-[2-methyl-3-(morpholin-4-yl)-phenyl]piperazine] |  | 6.66 | 8.23 |  |  |
| Cc1c(N2CCOCC2)cccc1N1CCCN(CCCc2c[nH]c3ccc(F)cc23)CC1 [Compound 2aa, 1-[3-(Morpholin-4-yl)-2-methylphenyl]-4-[3-(5-fluoro-1H-indol-3-yl)propyl]-1,4-diazepane] |  |  |  | 40 | 53 |
| Cc1c(N2CCCN(CCCc3c[nH]c4ccc(F)cc34)CC2)cccc1N1CC(C)OC(C)C1 (stereo not drawn) [Compound 2g, 1-[3-(2,6-Dimethylmorpholin-4-yl)-2-methylphenyl]-4-[3-(5-fluoro-1H-indol-3-yl)propyl]-1,4-diazepan] |  |  | 7.59 | 65 |  |
| Cc1c(Oc2ccc3c(c2)OCO3)cccc1N1CCN(CCCc2c[nH]c3ccccc23)CC1 [Compound 2i, 1-[3-(1,3-Benzodioxolan-5-yloxy)-2-methylphenyl]-4-[3-(1H-indol-3-yl)propyl]piperazine] |  |  | 7.46 | 54 |  |
| Cc1c(N2CCOCC2)cccc1N1CCN(CCCc2c[nH]c3ccc(Cl)cc23)CC1 [Compound 2l, 1-[3-(Morpholin-4-yl)-2-methylphenyl]-4-[3-(5-chloro-1H-indol-3-yl)propyl]piperazine] |  |  | 7.52 | 40 |  |
| Cc1c(N2CCN(CCCc3c[nH]c4ccccc34)CC2)cccc1N1CCC[C@H]1CO [Compound 2o, (S)-1-[3-(2-Hydroxymethylpyrrolidin-1-yl)-2-methylphenyl]-4-[3-(1H-indol-3-yl)propyl]piperazine] |  |  | 7.28 | 19 |  |
| Cc1c(N2CCN(CCCc3c[nH]c4ccc(F)cc34)CC2)cccc1N1CCC[C@H]1CO [Compound 2p, (S)-1-[3-(2-Hydroxymethylpyrrolidin-1-yl)-2-methylphenyl]-4-[3-(5-fluoro-1H-indol-3-yl)propyl]piperazine] |  |  |  | 54 | 67 |
| Cc1c(N2CCN(CCCc3c[nH]c4c(F)cc(F)cc34)CC2)cccc1N1CCC[C@H]1CO [Compound 2s, (S)-1-[3-(2-Hydroxymethylpyrrolidin-1-yl)-2-methylphenyl]-4-[3-(5,7-difluoro-1H-indol-3-yl)propyl]piperazine] |  |  | 7.39 | 36 |  |
| Cc1c(N2CCN(CCCc3c[nH]c4c(F)cc(F)cc34)CC2)cccc1N1CC(C)OC(C)C1 (stereo not drawn) [Compound 2w, 1-[3-(2,6-Dimethylmorpholin-4-yl)-2-methylphenyl]-4-[3-(5,7-difluoro-1H-indol-3-yl)propyl]piperazine] |  |  | 7.47 | 43 |  |
| CCN(CC)c1cccc(Oc2cccc(N3CCCN(CCCc4c[nH]c5c(F)cc(F)cc45)CC3)c2C)c1 [Compound 2x, 1-{3-[3-(Diethylamino)phenoxy]-2-methylphenyl}-4-[3-(5,7-difluoro-1H-indol-3-yl)propyl]-1,4-diazepane] |  |  | 7.12 | 66 |  |
